From patent US11180474B2 (BRISTOL-MYERS SQUIBB COMPANY, priority 2016, dated 2021)

What was measured:
human TLR7 = molecular target: T1, human TLR7 (Homo sapiens, UniProt Q9NYK1); experiment: TLR7 inhibition reporter assay (HEK-Blue cells, SEAP reporter, gardiquimod stimulation); assay type: cell-based; conditions: HEK-Blue cells overexpressing human TLR7, gardiquimod 7.5 μM
T1 construct: host or cells: HEK-Blue cells
T1 sequence (Q9NYK1 27-1049): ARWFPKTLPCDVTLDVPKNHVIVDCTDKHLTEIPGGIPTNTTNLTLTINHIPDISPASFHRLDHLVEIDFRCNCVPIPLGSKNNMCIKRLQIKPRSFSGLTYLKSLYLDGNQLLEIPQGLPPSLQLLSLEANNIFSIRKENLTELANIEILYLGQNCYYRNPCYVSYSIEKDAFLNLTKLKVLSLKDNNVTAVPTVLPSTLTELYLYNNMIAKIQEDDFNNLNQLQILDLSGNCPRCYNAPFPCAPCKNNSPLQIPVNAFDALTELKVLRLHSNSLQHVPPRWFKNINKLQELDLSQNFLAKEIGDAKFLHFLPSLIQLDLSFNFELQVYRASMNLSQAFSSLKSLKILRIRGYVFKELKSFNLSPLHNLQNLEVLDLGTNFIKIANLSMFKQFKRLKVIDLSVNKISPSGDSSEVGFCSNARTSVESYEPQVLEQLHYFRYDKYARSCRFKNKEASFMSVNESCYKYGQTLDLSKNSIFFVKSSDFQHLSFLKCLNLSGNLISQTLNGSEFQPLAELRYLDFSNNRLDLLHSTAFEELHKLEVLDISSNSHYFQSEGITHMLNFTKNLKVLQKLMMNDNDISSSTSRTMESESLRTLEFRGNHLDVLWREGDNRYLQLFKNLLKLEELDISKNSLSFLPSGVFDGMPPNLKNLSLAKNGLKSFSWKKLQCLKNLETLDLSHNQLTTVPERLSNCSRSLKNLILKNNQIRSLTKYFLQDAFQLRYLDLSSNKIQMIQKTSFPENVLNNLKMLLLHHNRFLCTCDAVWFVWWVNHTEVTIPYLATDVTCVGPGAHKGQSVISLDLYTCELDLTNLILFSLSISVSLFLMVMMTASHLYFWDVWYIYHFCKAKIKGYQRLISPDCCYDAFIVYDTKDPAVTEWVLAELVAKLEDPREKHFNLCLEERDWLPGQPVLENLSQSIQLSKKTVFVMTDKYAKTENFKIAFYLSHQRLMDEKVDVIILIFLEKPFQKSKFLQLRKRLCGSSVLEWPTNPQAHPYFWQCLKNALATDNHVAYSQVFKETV
Outline: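 In this cell reporter format, test compounds at 0.05 nM-50 μM final incubate 22 h with seeded cells (TLR7 15000, TLR8 20,000 per well). SEAP read-out by HEK-Blue Detection medium yields % inhibition relative to agonist/DMSO and known-inhibitor wells.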

human TLR9 = molecular target: T2, human TLR9 (Homo sapiens, UniProt Q9NR96); experiment: TLR9 inhibition reporter assay (HEK-Blue cells, SEAP reporter, ODN2006 stimulation); assay type: cell-based; conditions: HEK-Blue cells overexpressing human TLR9, ODN2006 5 nM
T2 construct: host or cells: HEK-Blue cells
T2 sequence (Q9NR96 26-1032): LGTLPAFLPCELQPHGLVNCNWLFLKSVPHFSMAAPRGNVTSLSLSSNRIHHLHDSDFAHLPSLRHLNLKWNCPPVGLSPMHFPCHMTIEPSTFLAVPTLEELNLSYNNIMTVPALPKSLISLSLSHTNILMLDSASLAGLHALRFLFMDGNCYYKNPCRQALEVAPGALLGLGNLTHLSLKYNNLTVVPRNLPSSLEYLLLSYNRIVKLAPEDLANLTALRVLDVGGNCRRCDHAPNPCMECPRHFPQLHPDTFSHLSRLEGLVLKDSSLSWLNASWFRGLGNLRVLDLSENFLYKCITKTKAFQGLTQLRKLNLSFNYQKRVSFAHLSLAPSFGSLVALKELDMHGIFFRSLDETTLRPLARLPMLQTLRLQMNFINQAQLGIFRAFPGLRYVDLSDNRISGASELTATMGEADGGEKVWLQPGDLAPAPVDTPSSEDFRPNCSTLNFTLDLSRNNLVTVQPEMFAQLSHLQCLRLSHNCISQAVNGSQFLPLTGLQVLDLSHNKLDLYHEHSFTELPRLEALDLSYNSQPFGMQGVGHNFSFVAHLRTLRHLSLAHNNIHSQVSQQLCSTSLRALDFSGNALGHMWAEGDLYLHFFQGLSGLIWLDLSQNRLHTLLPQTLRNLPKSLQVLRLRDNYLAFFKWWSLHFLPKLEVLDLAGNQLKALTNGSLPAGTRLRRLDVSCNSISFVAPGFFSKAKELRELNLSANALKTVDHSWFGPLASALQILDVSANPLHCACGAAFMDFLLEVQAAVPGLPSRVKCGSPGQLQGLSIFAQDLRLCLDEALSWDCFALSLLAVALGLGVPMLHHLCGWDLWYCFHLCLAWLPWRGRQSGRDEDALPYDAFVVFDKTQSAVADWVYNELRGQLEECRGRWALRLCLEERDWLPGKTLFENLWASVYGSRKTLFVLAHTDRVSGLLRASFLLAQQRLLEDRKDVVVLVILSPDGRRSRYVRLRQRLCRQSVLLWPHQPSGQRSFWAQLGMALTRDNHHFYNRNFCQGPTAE
Outline: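 Dose–response from 0.05 nM to 50 μM was run in HEK-Blue human TLR7, TLR8 and TLR9 reporter cells. After 30 min at room temperature with compound, ligand was added (TLR7 gardiquimod 7.5 μM; TLR8 R848 15.9 μM; TLR9 ODN2006 5 nM) and SEAP measured next day, at 22 h.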

Row | IC50 (human TLR7) [µM] | IC50 (human TLR9) [µM] | SMILES
1 | 0.106 | 2.17 | COc1ccc(-c2[nH]c3ccc(C4CCN(C(=O)CN(C)C)CC4)cc3c2CC(F)F)cc1OC [Example 399, 1-(4-(3-(2,2-difluoroethyl)-2-(3,4-dimethoxyphenyl)-1H-indol-5-yl)piperidin-1-yl)-2-(dimethylamino)ethan-1-one]
2 | 0.157 | 3.96 | COc1ccc(-c2[nH]c3ccc(C4CCN(CC(=O)N(C)C)CC4)cc3c2CC(F)F)cc1OC [Example 400, 2-(4-(3-(2,2-difluoroethyl)-2-(3,4-dimethoxyphenyl)-1H-indol-5-yl)piperidin-1-yl)-N,N-dimethylacetamide]
3 | 0.544 | 5.82 | COc1ccc(-c2[nH]c3ccc(C4CCN(C(=O)CN(C)C)CC4)cc3c2C)cc1OC [Example 402, 1-(4-(2-(3,4-dimethoxyphenyl)-3-methyl-1H-indol-5-yl)piperidin-1-yl)-2-(dimethylamino)ethan-1-one]

Further lines, the molecule ahead of its results:

Row | SMILES | IC50 (human TLR7) [µM] | IC50 (human TLR9) [µM]
4 | CNC(=O)CN1CCC(c2ccc3[nH]c(-c4ccc(OC)c(OC)c4)c(CC(F)F)c3c2)CC1 [Example 401, 2-(4-(3-(2,2-difluoroethyl)-2-(3,4-dimethoxyphenyl)-1H-indol-5-yl)piperidin-1-yl)-N-methylacetamide] | 0.132 | 5.29
5 | CCN(CC)C(=O)C1CCCN(CC(=O)N2CCC(c3ccc4[nH]c(-c5ccc(OC)c(OC)c5)c(C)c4c3)CC2)C1 (stereo not drawn) [Example 404, 1-(2-(4-(2-(3,4-dimethoxyphenyl)-3-methyl-1H-indol-5-yl)piperidin-1-yl)-2-oxoethyl)-N,N-diethylpiperidine-3-carboxamide] | 3.15 | 8.64
6 | COc1ccc(-c2[nH]c3ccc(C4CCN(C(=O)CNC[C@@H](O)CO)CC4)cc3c2C)cc1OC [Example 405, (R)-2-((2,3-dihydroxypropyl)amino)-1-(4-(2-(3,4-dimethoxyphenyl)-3-methyl-1H-indol-5-yl)piperidin-1-yl)ethan-1-one] | 18.3 | 13.5
